Values joined by “and” are separate entries in the source; they are usually repeats but may differ in a detail not shown here. Equal entries are not always repeated. Inconclusive results and toxic doses are left out.
Tested on: L1210 leukemia ip in BDF1 mice, survival T/C
Assay: NCI In Vivo Anticancer Drug Screen. Data for tumor model L1210 Leukemia (intraperitoneal) in B6D2F1 (BDF1) mice
Conditions: endpoint: mean survival time, higher = longer survival
Outline: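 Tumor was transplanted into mice, which were then dosed with test compound or vehicle alone. Survival was recorded for each group, and the treated figure was expressed relative to the control figure.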

[1] = dose: 100.0 mg/kg/injection, schedule: Q04DX002 (ip), vehicle: Klucel (hydroxypropylcellulose) (HPC)
[2] = dose: 200.0 mg/kg/injection, schedule: Q04DX002 (ip), vehicle: Klucel (hydroxypropylcellulose) (HPC)
[3] = dose: 25.0 mg/kg/injection, schedule: Q01DX009 (ip), vehicle: Klucel (hydroxypropylcellulose) (HPC)
[4] = dose: 50.0 mg/kg/injection, schedule: Q01DX009 (ip), vehicle: Klucel (hydroxypropylcellulose) (HPC)
[5] = dose: 100.0 mg/kg/injection, schedule: Q01DX001 (ip), vehicle: Klucel (hydroxypropylcellulose) (HPC)
[6] = dose: 100.0 mg/kg/injection, schedule: Q04DX003 (ip), vehicle: Klucel (hydroxypropylcellulose) (HPC)
[7] = dose: 100.0 mg/kg/injection, schedule: Q01DX009 (ip), vehicle: saline with Tween-80
[8] = dose: 200.0 mg/kg/injection, schedule: Q01DX009 (ip), vehicle: saline with Tween-80
[9] = dose: 400.0 mg/kg/injection, schedule: Q01DX009 (ip), vehicle: saline with Tween-80
[10] = dose: 100.0 mg/kg/injection, schedule: Q01DX009 (ip), vehicle: Klucel (hydroxypropylcellulose) (HPC)
[11] = dose: 200.0 mg/kg/injection, schedule: Q01DX009 (ip), vehicle: Klucel (hydroxypropylcellulose) (HPC)
[12] = dose: 100.0 mg/kg/injection, schedule: Q01DX001 (ip), vehicle: saline
[13] = dose: 200.0 mg/kg/injection, schedule: Q01DX001 (ip), vehicle: saline
[14] = dose: 100.0 mg/kg/injection, schedule: Q04DX002 (ip), vehicle: saline
[15] = dose: 200.0 mg/kg/injection, schedule: Q04DX002 (ip), vehicle: saline
[16] = dose: 400.0 mg/kg/injection, schedule: Q04DX002 (ip), vehicle: saline
[17] = dose: 400.0 mg/kg/injection, schedule: Q04DX002 (ip), vehicle: Klucel (hydroxypropylcellulose) (HPC)
[18] = dose: 100.0 mg/kg/injection, schedule: Q04DX002 (ip), vehicle: saline with Tween-80

COc1cccc(NC(=S)NC2CC(C)CC(C)(C)C2)c1 (configuration not stated)
T/C (dose: 100.0 mg/kg/injection, schedule: Q04DX002 (ip), vehicle: gum acacia): 95 % of control | T/C (dose: 200.0 mg/kg/injection, schedule: Q04DX002 (ip), vehicle: gum acacia): 98 % of control | T/C (dose: 400.0 mg/kg/injection, schedule: Q04DX002 (ip), vehicle: gum acacia): 95 % of control

O=C(COc1cc(Cl)c(Cl)cc1Cl)OC(=O)COc1cc(Cl)c(Cl)cc1Cl
T/C [1]: 107 % of control | T/C [2]: 96 % of control

COc1ccc(COC(=O)N=[N+]=[N-])cc1
T/C (dose: 12.5 mg/kg/injection, schedule: Q04DX003 (ip), vehicle: Klucel (hydroxypropylcellulose) (HPC)): 112 % of control | T/C [3]: 98 % of control | T/C (dose: 25.0 mg/kg/injection, schedule: Q04DX003 (ip), vehicle: Klucel (hydroxypropylcellulose) (HPC)): 110 % of control | T/C [4]: 91 % of control | T/C (dose: 50.0 mg/kg/injection, schedule: Q04DX003 (ip), vehicle: Klucel (hydroxypropylcellulose) (HPC)): 105 % of control | T/C [5]: 98 % of control | T/C [6]: 105 % of control

O=C1c2ccccc2CCCC1Br (configuration not stated)
T/C (dose: 100.0 mg/kg/injection, schedule: Q01DX001 (ip), vehicle: carboxymethylcellulose (CMC)): 95 % of control | T/C (dose: 200.0 mg/kg/injection, schedule: Q01DX001 (ip), vehicle: carboxymethylcellulose (CMC)): 87 % of control | T/C (dose: 400.0 mg/kg/injection, schedule: Q01DX001 (ip), vehicle: carboxymethylcellulose (CMC)): 92 % of control

COc1ccc(-c2cc(=O)c3c(O)c(OC)c(O)cc3o2)cc1
T/C (dose: 20.0 mg/kg/injection, schedule: Q01DX Z (ip), vehicle: saline): 101 % of control | T/C (dose: 40.0 mg/kg/injection, schedule: Q01DX Z (ip), vehicle: saline): 108 % of control | T/C (dose: 80.0 mg/kg/injection, schedule: Q01DX Z (ip), vehicle: saline): 95 % of control

CC(=O)Nc1ccc(C(=O)Nc2ccc(C3=NCCN3)cc2)cc1C(=O)Nc1ccc(C2=NCCN2)cc1
T/C (dose: 62.0 mg/kg/injection, schedule: Q01DX015 (ip), vehicle: carboxymethylcellulose (CMC)): 317 % of control | T/C (dose: 250.0 mg/kg/injection, schedule: Q01DX015 (ip), vehicle: carboxymethylcellulose (CMC)): 158 % of control

NC(=O)C1NC(=O)NC1=O (configuration not stated)
T/C [7]: 88 % of control | T/C [8]: 93 % of control | T/C [9]: 97 % of control

NCC1OC(OC2C(CO)OC(OC3C(O)C(N)CC(N)C3OC3OC(CO)C(O)CC3N)C2O)C(N)C(O)C1OC1OC(CO)C(O)C(O)C1O (configuration not stated)
T/C (dose: 100.0 mg/kg/injection, schedule: Q01DX005 (ip), vehicle: saline): 96 % of control | T/C (dose: 100.0 mg/kg/injection, schedule: Q01DX009 (ip), vehicle: saline): 100 % of control | T/C (dose: 200.0 mg/kg/injection, schedule: Q01DX005 (ip), vehicle: saline): 101 % of control | T/C (dose: 200.0 mg/kg/injection, schedule: Q01DX009 (ip), vehicle: saline): 110 % of control | T/C (dose: 400.0 mg/kg/injection, schedule: Q01DX005 (ip), vehicle: saline): 101 % of control | T/C (dose: 400.0 mg/kg/injection, schedule: Q01DX009 (ip), vehicle: saline): 100 % of control

CC1(C)SC(C(NC(=O)Cc2ccccc2)C(=O)O)NC1C(=O)O (configuration not stated)
T/C [7]: 92 % of control | T/C [9]: 97 % of control

CC(C)(C)c1ccc(OC(=O)Nc2ccc(O)c(C(=O)O)c2)cc1
T/C [5]: 115 % of control | T/C [10]: 94 % of control and 98 % of control | T/C [1]: 96 % of control and 118 % of control | T/C [6]: 96 % of control | T/C [11]: 94 % of control | T/C [2]: 92 % of control and 86 % of control | T/C (dose: 200.0 mg/kg/injection, schedule: Q04DX003 (ip), vehicle: Klucel (hydroxypropylcellulose) (HPC)): 86 % of control

CC(C)(C)N(CSc1ccc(Cl)cc1)CSc1ccc(Cl)cc1
T/C [12]: 104 % of control | T/C [13]: 104 % of control

O=C1NC23CC=CCC12CCC3 (configuration not stated)
T/C [14]: 100 % of control | T/C [15]: 93 % of control | T/C [16]: 109 % of control

CC(=O)OC12C(=O)OC(=O)C1(C)C1c3ccccc3C2c2ccccc21 (configuration not stated)
T/C [3]: 111 % of control | T/C [4]: 106 % of control | T/C [10]: 98 % of control

Cc1ccc(NC(=O)Oc2ccc(Br)cc2)c([N+](=O)[O-])c1
T/C [1]: 99 % of control | T/C [2]: 115 % of control | T/C [17]: 92 % of control

CCN(CC)CC(=O)NCC(CCN(C)C)(CCN(C)C)c1cccc2ccccc12
T/C (dose: 25.0 mg/kg/injection, schedule: Q04DX002 (ip), vehicle: saline with Tween-80): 115 % of control | T/C (dose: 50.0 mg/kg/injection, schedule: Q04DX002 (ip), vehicle: saline with Tween-80): 96 % of control | T/C [7]: 93 % of control | T/C [18]: 107 % of control

NNC(=O)C(=O)NN
T/C [1]: 102 % of control | T/C [2]: 98 % of control | T/C [17]: 93 % of control

Cc1c(C(=O)O)c(C(=O)O)c(C)n1-c1ccccc1C(=O)O (tested in a mixture with another compound)
T/C (dose: 100.0 mg/kg/injection, schedule: Q04DX003 (ip), vehicle: saline): 106 % of control | T/C (dose: 200.0 mg/kg/injection, schedule: Q04DX003 (ip), vehicle: saline): 101 % of control

CCCCCCCCCCCCCCn1cnc2c(=S)nc[nH]c21
T/C (dose: 12.5 mg/kg/injection, schedule: Q01DX005 (ip), vehicle: other): 101 % of control | T/C (dose: 25.0 mg/kg/injection, schedule: Q01DX005 (ip), vehicle: other): 101 % of control | T/C (dose: 50.0 mg/kg/injection, schedule: Q01DX005 (ip), vehicle: other): 96 % of control | T/C (dose: 100.0 mg/kg/injection, schedule: Q01DX005 (ip), vehicle: other): 96 % of control | T/C (dose: 200.0 mg/kg/injection, schedule: Q01DX005 (ip), vehicle: other): 95 % of control

Cc1ccc(N=Cc2ccc3c(c2)OCO3)cc1
T/C [5]: 100 % of control | T/C [10]: 91 % of control | T/C (dose: 200.0 mg/kg/injection, schedule: Q01DX001 (ip), vehicle: Klucel (hydroxypropylcellulose) (HPC)): 104 % of control | T/C [11]: 105 % of control | T/C (dose: 400.0 mg/kg/injection, schedule: Q01DX001 (ip), vehicle: Klucel (hydroxypropylcellulose) (HPC)): 118 % of control | T/C (dose: 400.0 mg/kg/injection, schedule: Q01DX009 (ip), vehicle: Klucel (hydroxypropylcellulose) (HPC)): 98 % of control

CCCCOC(=O)c1ccc(NC(=O)NCCC)cc1
T/C [7]: 90 % of control | T/C [8]: 88 % of control | T/C [9]: 95 % of control

N=C(N)/C=C\C(=O)O
T/C (dose: 5.0 mg/kg/injection, schedule: Q01DX Z (ip), vehicle: carboxymethylcellulose (CMC)): 93 % of control | T/C (dose: 10.0 mg/kg/injection, schedule: Q01DX Z (ip), vehicle: carboxymethylcellulose (CMC)): 103 % of control | T/C (dose: 20.0 mg/kg/injection, schedule: Q01DX Z (ip), vehicle: carboxymethylcellulose (CMC)): 101 % of control

Cc1ccc(S(=O)(=O)ON/N=C2\C(=O)C3CCC2C3)cc1 (configuration not stated)
T/C [18]: 95 % of control

CC1CCC2(C(=O)OC3OC(COC4OC(CO)C(OC5OC(C)C(O)C(O)C5O)C(O)C4O)C(O)C(O)C3O)CCC3(C)C(=CCC4C5(C)CC(O)C(O)C(C)(CO)C5CCC43C)C2C1C (configuration not stated)
T/C (dose: 100.0 mg/kg/injection, schedule: Q01DX001 (ip), vehicle: saline with Tween-80): 98 % of control | T/C (dose: 200.0 mg/kg/injection, schedule: Q01DX001 (ip), vehicle: saline with Tween-80): 98 % of control | T/C (dose: 400.0 mg/kg/injection, schedule: Q01DX001 (ip), vehicle: saline with Tween-80): 97 % of control

O=S(=O)(O)C(O)c1ccccc1 (configuration not stated)
T/C [14]: 97 % of control | T/C [15]: 100 % of control | T/C [16]: 103 % of control

CC(=O)OC1CC(C)(C)CC(OC(C)=O)C1(C)C (configuration not stated)
T/C (dose: 75.0 mg/kg/injection, schedule: Q01DX001 (ip), vehicle: saline): 100 % of control | T/C (dose: 150.0 mg/kg/injection, schedule: Q01DX001 (ip), vehicle: saline): 111 % of control

Cc1ccc([N+](=O)[O-])cc1CN(CCO)CCO
T/C [12]: 101 % of control | T/C [13]: 95 % of control | T/C (dose: 400.0 mg/kg/injection, schedule: Q01DX001 (ip), vehicle: saline): 98 % of control

Source: PubChem BioAssay AID248 (DTP/NCI, 2004)
